Patent US20090117176A1, “Anticancer Treatments” (Pharma Mar, S.A. Sociedad Unipersonal, priority 2004, published 2009)
Marks after values point to notes of the source that are not given here.

Assay: Phase I trial combining PLD and trabectedin: MTD, safety, drug-related adverse events
Assay type: in vivo, human
Protocol: A phase I trial combining PLD and trabectedin was performed. The objective of this study was to determine the maximum tolerated dose (MTD) of trabectidin in combination with PLD 30 mg/m^2 administered every 21 clays. Additional objectives were to evaluate the safety profile of this combination of drugs and to evaluate the pharmacokinetics of trabectidin and PDL when given in combination. The maximum tolerated dose (MTD) relates to the highest dose at which less than one third of the subjects in a dose-level cohort experienced dose-limiting toxicity (DLT).
We designed a dose finding trial with a fixed PLD dose of 30 mg/m^2 administered intravenously over one hour, followed immediately by one of six trabectedin doses (0.4, 0.6, 0.75, 0.9, 1.1, and 1.3 mg/m^2) administered intravenously over 3 hours. This treatment was repeated every 21 days.
Entry-criteria included normal liver function tests, limited prior, doxorubicin-exposure (dose less than 250 mg/m^2), normal cardiac function and Eastern Cooperative Oncology Group (ECOG) Performance Status (PS) score of 0 or 1.
Worst on-treatment drug related grade 3 and 4 toxicities have been minimal, limited to neutropenia and transaminases elevation. Tables 5a and 5b show the frequently reported drug-related Grade ¾ adverse events in least 5% of subjects. The adverse events reported at any time from first treatment dose up to 30 days after the last treatment dose are included. In order to define the toxicity grade, NCI common criteria are used.
In addition, Tables 6a and 6b show the drug-related serious adverse events reported.
Out of 18 subjects that discontinued treatment only one subject terminated treatment due to drug related adverse event (Tables 7a and 7b).

[1] = ET743 0.4 mg/m^2 + PLD 30 mg/m^2, N = 3
[2] = ET743 0.6 mg/m^2 + PLD 30 mg/m^2, N = 3
[3] = ET743 0.75 mg/m^2 + PLD 30 mg/m^2, N = 3
[4] = ET743 0.9 mg/m^2 + PLD 30 mg/m^2, N = 3
[5] = ET743 1.1 mg/m^2 + PLD 30 mg/m^2, N = 12
[6] = ET743 1.3 mg/m^2 + PLD 30 mg/m^2, N = 6
[7] = Total, all ET743 dose levels + PLD 30 mg/m^2, N = 30

COc1cc2c(cc1O)CCN[C@]21CS[C@@H]2c3c(OC(C)=O)c(C)c4c(c3[C@H](COC1=O)N1[C@@H]2[C@H]2c3c(cc(C)c(OC)c3O)C[C@@H]([C@@H]1O)N2C)OCO4 [ET743, Ecteinascidin 743]
17: Total no. subjects with Grade 3/4 drug-related AE [7]
4: Grade 3/4 drug-related AE, subjects: Other [5] | Grade 3/4 drug-related AE, subjects: Palmar-Plantar Erythrodysesthesia [7]
3*: Grade 3/4 drug-related AE, subjects: SGPT Increased [6]
2*: Grade 3/4 drug-related AE, subjects: SGOT Increased [6]
3: Grade 3/4 drug-related AE, subjects: Liver and Biliary System [6] | Grade 3/4 drug-related AE, subjects: SGOT Increased [7]
9: Grade 3/4 drug-related AE, subjects: Liver and Biliary System [7] | Grade 3/4 drug-related AE, subjects: SGPT Increased [7]
7: Grade 3/4 drug-related AE, subjects: Other [7]
1: Grade 3/4 drug-related AE, subjects: Nausea [2] | Grade 3/4 drug-related AE, subjects: Other [2] | Total no. subjects with Grade 3/4 drug-related AE [2] | Drug related serious adverse events, subjects: Nausea/Vomiting [5] | Grade 3/4 drug-related AE, subjects: Nausea [5] | Grade 3/4 drug-related AE, subjects: SGOT Increased [5] | Total no. subjects with SAE (drug related serious adverse events) [5] | Treatment termination, subjects: Drug-Related AE (hand-foot syndrome) [5] | Treatment termination, subjects: Death [6] | Total no. subjects with SAE (drug related serious adverse events) [7] | Treatment termination, subjects: Death [7] | Treatment termination, subjects: Drug-Related AE (hand-foot syndrome) [7]
0: Drug related serious adverse events, subjects: Nausea/Vomiting [1] | Grade 3/4 drug-related AE, subjects: Allergic Reaction [1] | Grade 3/4 drug-related AE, subjects: Liver and Biliary System [1] | Grade 3/4 drug-related AE, subjects: Nausea [1] | Grade 3/4 drug-related AE, subjects: Other [1] | Grade 3/4 drug-related AE, subjects: Palmar-Plantar Erythrodysesthesia [1] | Grade 3/4 drug-related AE, subjects: SGOT Increased [1] | Grade 3/4 drug-related AE, subjects: SGPT Increased [1] | Total no. subjects with Grade 3/4 drug-related AE [1] | Total no. subjects with SAE (drug related serious adverse events) [1] | Treatment termination, subjects: Death [1] | Treatment termination, subjects: Drug-Related AE (hand-foot syndrome) [1] | Drug related serious adverse events, subjects: Nausea/Vomiting [2] | Grade 3/4 drug-related AE, subjects: Allergic Reaction [2] | Grade 3/4 drug-related AE, subjects: Liver and Biliary System [2] | Grade 3/4 drug-related AE, subjects: Palmar-Plantar Erythrodysesthesia [2] | Grade 3/4 drug-related AE, subjects: SGOT Increased [2] | Grade 3/4 drug-related AE, subjects: SGPT Increased [2] | Total no. subjects with SAE (drug related serious adverse events) [2] | Treatment termination, subjects: Death [2] | Treatment termination, subjects: Drug-Related AE (hand-foot syndrome) [2] | Drug related serious adverse events, subjects: Nausea/Vomiting [3] | Grade 3/4 drug-related AE, subjects: Allergic Reaction [3] | Grade 3/4 drug-related AE, subjects: Liver and Biliary System [3] | Grade 3/4 drug-related AE, subjects: Nausea [3] | Grade 3/4 drug-related AE, subjects: Other [3] | Grade 3/4 drug-related AE, subjects: Palmar-Plantar Erythrodysesthesia [3] | Grade 3/4 drug-related AE, subjects: SGOT Increased [3] | Grade 3/4 drug-related AE, subjects: SGPT Increased [3] | Total no. subjects with Grade 3/4 drug-related AE [3] | Total no. subjects with SAE (drug related serious adverse events) [3] | Treatment termination, subjects: Death [3] | Treatment termination, subjects: Drug-Related AE (hand-foot syndrome) [3] | Drug related serious adverse events, subjects: Nausea/Vomiting [4] | Grade 3/4 drug-related AE, subjects: Allergic Reaction [4] | Grade 3/4 drug-related AE, subjects: Liver and Biliary System [4] | Grade 3/4 drug-related AE, subjects: Nausea [4] | Grade 3/4 drug-related AE, subjects: Other [4] | Grade 3/4 drug-related AE, subjects: Palmar-Plantar Erythrodysesthesia [4] | Grade 3/4 drug-related AE, subjects: SGOT Increased [4] | Grade 3/4 drug-related AE, subjects: SGPT Increased [4] | Total no. subjects with Grade 3/4 drug-related AE [4] | Total no. subjects with SAE (drug related serious adverse events) [4] | Treatment termination, subjects: Death [4] | Treatment termination, subjects: Drug-Related AE (hand-foot syndrome) [4] | Treatment termination, subjects: Death [5] | Drug related serious adverse events, subjects: Nausea/Vomiting [6] | Grade 3/4 drug-related AE, subjects: Allergic Reaction [6] | Grade 3/4 drug-related AE, subjects: Nausea [6] | Total no. subjects with SAE (drug related serious adverse events) [6] | Treatment termination, subjects: Drug-Related AE (hand-foot syndrome) [6]
1.1 mg/m^2: ET-743 dose reached in dose escalation (in combination with 30 mg/m^2 PLD, ET-743 over 3 hours) | maximum tolerated dose (MTD) (in combination with PLD 30 mg/m^2, every 21 days, ET-743 i.v. over 3 hours) | recommended dose of the combination treatment (plus 30 mg/m^2 of PLD)
10: Total no. subjects with Grade 3/4 drug-related AE [5]
2: Grade 3/4 drug-related AE, subjects: Allergic Reaction [5] | Grade 3/4 drug-related AE, subjects: Palmar-Plantar Erythrodysesthesia [5] | Grade 3/4 drug-related AE, subjects: Other [6] | Grade 3/4 drug-related AE, subjects: Palmar-Plantar Erythrodysesthesia [6] | Grade 3/4 drug-related AE, subjects: Allergic Reaction [7] | Grade 3/4 drug-related AE, subjects: Nausea [7]
well tolerated: Tolerability of the combination (both drugs at full (or near full) therapeutic doses for prolonged periods)
6: Grade 3/4 drug-related AE, subjects: Liver and Biliary System [5] | Grade 3/4 drug-related AE, subjects: SGPT Increased [5] | Total no. subjects with Grade 3/4 drug-related AE [6]
